Target: T1, human AspH (His6-AspH315–758) (Homo sapiens, UniProt Q12797)
T1 construct: N-Terminally His6-tagged human AspH315–758 (His6-AspH315–758) was produced in Escherichia coli BL21 (DE3) cells; made in house; host or cells: Escherichia coli BL21 (DE3), pET-28a(+) vector
T1 sequence (Q12797 315-758): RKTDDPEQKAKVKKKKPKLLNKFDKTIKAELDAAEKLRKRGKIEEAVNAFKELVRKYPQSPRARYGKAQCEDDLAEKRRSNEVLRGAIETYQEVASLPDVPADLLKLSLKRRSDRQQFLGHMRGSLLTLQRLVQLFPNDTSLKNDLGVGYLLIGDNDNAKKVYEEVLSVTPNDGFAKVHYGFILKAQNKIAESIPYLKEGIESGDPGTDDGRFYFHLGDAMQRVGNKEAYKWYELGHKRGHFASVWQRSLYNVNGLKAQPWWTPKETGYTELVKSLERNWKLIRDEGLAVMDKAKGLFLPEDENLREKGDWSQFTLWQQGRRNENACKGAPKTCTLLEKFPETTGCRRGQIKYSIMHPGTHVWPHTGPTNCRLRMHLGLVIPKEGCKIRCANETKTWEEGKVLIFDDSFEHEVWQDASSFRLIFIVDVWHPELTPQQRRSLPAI
Assay: SPE-MS AspH inhibition assay (hFX-CP101-119 substrate hydroxylation)
Format: biochemical
Conditions: AspH-inhibitor screening; for Plate 1 (% inhibition): 384-well Plate 1; for Plate 1 (% conversion): 384-well Plate 1, substrate conversion; for Plate 1-duplicate (% conversion): substrate conversion

Plate 1 (% inhibition)	Plate 1 (% conversion)	Plate 1-duplicate (% inhibition)	Plate 1-duplicate (% conversion)	SMILES
1.59%	49.02%	2.59%	50.76%	CO[C@@]12[C@H](COC(N)=O)C3=C(C(=O)C(C)=C(N)C3=O)N1C[C@@H]1N[C@@H]12 [Mitomycin]
14.44%	43.08%	17.86%	43.18%	Clc1ccc(C(c2ccccc2Cl)C(Cl)Cl)cc1 (centres unmarked) [Mitotane]
-7.77%	53.34%	-12.32%	58.15%	CCNC(=O)c1noc(-c2cc(C(C)C)c(O)cc2O)c1-c1ccc(CN2CCOCC2)cc1 [NVP-AUY922]
5.14%	47.38%	3.83%	50.14%	Cn1c(=O)n(-c2ccc(C(C)(C)C#N)cc2)c2c3cc(-c4cnc5ccccc5c4)ccc3ncc21 [NVP-BEZ235_Dactolisib]
-4.10%	51.64%	-20.49%	62.20%	CCN1CCN(c2ccc(Nc3cc(N(C)C(=O)Nc4c(Cl)c(OC)cc(OC)c4Cl)ncn3)cc2)CC1 [NVP-BGJ398]
-1.21%	50.31%	1.44%	51.33%	COc1nc(N)nc2c1ncn2[C@@H]1O[C@H](CO)[C@@H](O)[C@@H]1O [Nelarabine]
-10.38%	54.54%	-7.89%	55.95%	Cc1cn(-c2cc(NC(=O)c3ccc(C)c(Nc4nccc(-c5cccnc5)n4)c3)cc(C(F)(F)F)c2)cn1 [Nilotinib]
4.05%	47.88%	4.06%	50.03%	CC1(C)NC(=O)N(c2ccc([N+](=O)[O-])c(C(F)(F)F)c2)C1=O [Nilutamide]
-13.27%	55.88%	-5.84%	54.94%	COc1ccc(C2=N[C@@H](c3ccc(Cl)cc3)[C@@H](c3ccc(Cl)cc3)N2C(=O)N2CCNC(=O)C2)c(OC(C)C)c1 [Nutlin-3]
-4.91%	52.02%	-2.62%	53.34%	COc1cccc2cc(-c3nc([C@H]4CC[C@H](C(=O)O)CC4)n4ncnc(N)c34)[nH]c12 [OSI-027]
4.66%	47.60%	-12.38%	58.18%	C[C@]1(O)C[C@@H](c2nc(-c3ccc4ccc(-c5ccccc5)nc4c3)c3c(N)nccn32)C1 [OSI-906_Linsitinib]

SMILES	Plate 1 (% inhibition)	Plate 1 (% conversion)	Plate 1-duplicate (% inhibition)	Plate 1-duplicate (% conversion)
O=C1c2c(O)ccc(O)c2C(=O)c2c(NCCNCCO)ccc(NCCNCCO)c21 [Mitoxantrone]	-29.89%	63.55%	-22.19%	63.05%
CC1(C)CNc2cc(NC(=O)c3cccnc3NCc3ccncc3)ccc21.O=P(O)(O)O.O=P(O)(O)O [Motesanib Diphosphate (AMG-706)]	35.35%	33.43%	26.44%	38.93%
Cc1c(C(=O)Nc2ccc(N3C[C@@H](C)O[C@@H](C)C3)nc2)cccc1-c1ccc(OC(F)(F)F)cc1.O=P(O)(O)O.O=P(O)(O)O [NVP-LDE225 (Diphosphate salt)]	-20.13%	59.05%	-19.69%	61.81%

Reference: article PMC7588595, “Small-molecule active pharmaceutical ingredients of approved cancer therapeutics inhibit human aspartate/asparagine-β-hydroxylase” (Bioorganic & Medicinal Chemistry, 2020)
